The source of these data is PubChem BioAssay AID180 (DTP/NCI, 2004).

Several values for one entry are separate records, joined by “and”; a condition that tells them apart may be missing. Equal values may be shown once.

The test system of the test is BDF1 mice, Adenocarcinoma 755 s.c., tumor weight T/C. As to the kind of experiment: NCI In Vivo Anticancer Drug Screen. Data for tumor model Adenocarcinoma 755 (subcutaneous) in B6D2F1 (BDF1) mice. The settings on record: endpoint: mean tumor weight, higher = larger tumour. The gist of the method: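 Values express treated (T) relative to vehicle-dosed control (C) animals, based on survival or tumour size measured after compound treatment of mice bearing a transplanted tumour.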

Setting [1] is: dose: 2.5 mg/kg/injection, schedule: Q01DX011 (ip), vehicle: carboxymethylcellulose (CMC).
The mark [2] stands for this setting: dose: 5.0 mg/kg/injection, schedule: Q01DX011 (ip), vehicle: carboxymethylcellulose (CMC).
Where [3] appears, read: dose: 0.25 mg/kg/injection, schedule: Q01DX011 (ip), vehicle: carboxymethylcellulose (CMC).
[4] abbreviates: dose: 0.5 mg/kg/injection, schedule: Q01DX011 (ip), vehicle: carboxymethylcellulose (CMC).
[5] abbreviates: dose: 1.0 mg/kg/injection, schedule: Q01DX011 (ip), vehicle: carboxymethylcellulose (CMC).

The term T/C denotes the ratio of treated to control. In the case of `C[C@]12CC[C@@H]3c4ccc(OC(=O)c5ccccc5)cc4CC[C@H]3[C@@H]1CC[C@@H]2O`, the T/C is 81 % of control (dose: 77.31 mg/kg/injection, schedule: Q01DX011 (sc), vehicle: steriod suspending solution); 66 % of control (dose: 125.0 mg/kg/injection, schedule: Q01DX011 (sc), vehicle: steriod suspending solution); 94 % of control (dose: 154.63 mg/kg/injection, schedule: Q01DX011 (sc), vehicle: steriod suspending solution); 87 % of control (dose: 250.0 mg/kg/injection, schedule: Q01DX011 (sc), vehicle: steriod suspending solution); 72 % of control (dose: 309.25 mg/kg/injection, schedule: Q01DX011 (sc), vehicle: steriod suspending solution); 84 % of control (dose: 500.0 mg/kg/injection, schedule: Q01DX011 (sc), vehicle: steriod suspending solution). The T/C reads like this: (dose: 618.5 mg/kg/injection, schedule: Q01DX011 (sc), vehicle: steriod suspending solution) 91 % of control; (dose: 1000.0 mg/kg/injection, schedule: Q01DX011 (sc), vehicle: steriod suspending solution) 54 % of control.
In the case of `CC(=O)Nc1c(Cl)c(Cl)c2c(c1Cl)Cc1cc(F)ccc1-2`, the T/C reads like this: (dose: 125.0 mg/kg/injection, schedule: Q01DX011 (ip), vehicle: carboxymethylcellulose (CMC)) 91 % of control; (dose: 125.0 mg/kg/injection, schedule: Q01DX011 (ip), vehicle: saline) 29 % of control; (dose: 250.0 mg/kg/injection, schedule: Q01DX011 (ip), vehicle: carboxymethylcellulose (CMC)) 41 % of control; (dose: 250.0 mg/kg/injection, schedule: Q01DX011 (ip), vehicle: saline) 29 % of control; (dose: 500.0 mg/kg/injection, schedule: Q01DX011 (ip), vehicle: carboxymethylcellulose (CMC)) 42 % of control; (dose: 500.0 mg/kg/injection, schedule: Q01DX011 (ip), vehicle: saline) 17 % of control. For the same compound, the T/C is, setting by setting: (dose: 1000.0 mg/kg/injection, schedule: Q01DX011 (ip), vehicle: carboxymethylcellulose (CMC)) 25 % of control; (dose: 1000.0 mg/kg/injection, schedule: Q01DX011 (ip), vehicle: saline) 14 % of control.
Turning to `O=C(CCBr)NCNC(=O)CCBr`, the T/C (dose: 28.0 mg/kg/injection, schedule: Q01DX011 (ip), vehicle: methylcellulose (MC)) was 56 % of control and the T/C (dose: 57.0 mg/kg/injection, schedule: Q01DX011 (ip), vehicle: methylcellulose (MC)) is 28 % of control.
In the case of `CC(=O)N(C)c1ccccc1`, the T/C runs as follows: (dose: 12.5 mg/kg/injection, schedule: Q01DX011 (ip), vehicle: other) 69 % of control; (dose: 25.0 mg/kg/injection, schedule: Q01DX011 (ip), vehicle: other) 88 % of control; (dose: 50.0 mg/kg/injection, schedule: Q01DX011 (ip), vehicle: other) 73 % of control; (dose: 100.0 mg/kg/injection, schedule: Q01DX011 (ip), vehicle: other) 95 % of control.
With `Cc1nnc2ncnc(N)c2n1`, for the setting “dose: 30.0 mg/kg/injection, schedule: Q01DX011 (ip), vehicle: carboxymethylcellulose (CMC)”, the T/C was 46 % of control.
Regarding `O=C(O)CCc1c[nH]c2ccc(N(CCCl)CCCl)cc12`, the T/C runs as follows: (dose: 1.2 mg/kg/injection, schedule: Q01DX011 (ip), vehicle: carboxymethylcellulose (CMC)) 90 % of control; under setting [1], 64 % of control; under setting [2], 74 % of control.
Regarding `NC(CCCC(N)C(=O)O)C(=O)O` (centres undefined), the T/C by setting is: (dose: 200.0 mg/kg/injection, schedule: Q01DX011 (ip), vehicle: other) 75 % of control; (dose: 400.0 mg/kg/injection, schedule: Q01DX011 (ip), vehicle: other) 77 % of control; (dose: 600.0 mg/kg/injection, schedule: Q01DX011 (ip), vehicle: other) 93 % of control.
On to `CCOC(=O)C(Cc1ccc(N(CCCl)CCCl)cc1)NP1(=O)NCCCO1` (centres undefined), for which the T/C (dose: 36.0 mg/kg/injection, schedule: Q01DX011 (ip), vehicle: saline) was 21 % of control.
Consider `CN(C)[C@@H]1C(=O)C(C(=O)NCN(CCCl)CCCl)=C(O)[C@@]2(O)C(=O)C3=C(O)c4c(O)cccc4[C@@](C)(O)[C@H]3C[C@@H]12`, for which the T/C was 111 % of control (dose: 0.5 mg/kg/injection, schedule: Q01DX011 (ip), vehicle: methylcellulose (MC)); 98 % of control (dose: 5.0 mg/kg/injection, schedule: Q01DX011 (ip), vehicle: methylcellulose (MC)); 44 % of control (dose: 10.0 mg/kg/injection, schedule: Q01DX011 (ip), vehicle: methylcellulose (MC)); 37 % of control and 60 % of control (dose: 15.0 mg/kg/injection, schedule: Q01DX011 (ip), vehicle: saline); 35 % of control (dose: 20.0 mg/kg/injection, schedule: Q01DX011 (ip), vehicle: methylcellulose (MC)); 36 % of control (dose: 60.0 mg/kg/injection, schedule: Q01DX011 (ip), vehicle: saline).
As to `CCOC1=C(N2CC2)C(=O)C(OCC)=C(N2CC2)C1=O`, the T/C was 36 % of control (dose: 0.08 mg/kg/injection, schedule: Q01DX011 (ip), vehicle: carboxymethylcellulose (CMC)); 94 % of control (dose: 0.12 mg/kg/injection, schedule: Q01DX011 (ip), vehicle: carboxymethylcellulose (CMC)); 46 % of control (dose: 0.16 mg/kg/injection, schedule: Q01DX011 (ip), vehicle: carboxymethylcellulose (CMC)); 55 % of control under setting [3]; 48 % of control (dose: 0.32 mg/kg/injection, schedule: Q01DX011 (ip), vehicle: carboxymethylcellulose (CMC)); 71 % of control under setting [4]. For the same compound, the T/C is, setting by setting: (dose: 0.63 mg/kg/injection, schedule: Q01DX011 (ip), vehicle: carboxymethylcellulose (CMC)) 35 % of control; under setting [5], 44 % of control; (dose: 2.5 mg/kg/injection, schedule: Q01DX011 (ip), vehicle: methylcellulose (MC)) 21 % of control; (dose: 10.0 micrograms/kg/injection, schedule: Q01DX011 (ip), vehicle: carboxymethylcellulose (CMC)) 111 % of control; (dose: 40.0 micrograms/kg/injection, schedule: Q01DX011 (ip), vehicle: carboxymethylcellulose (CMC)) 98 % of control; (dose: 80.0 micrograms/kg/injection, schedule: Q01DX011 (ip), vehicle: carboxymethylcellulose (CMC)) 115 % of control.
`CC(=O)N(C(C)C)C(C)C`: the T/C (dose: 5.0 mg/kg/injection, schedule: Q01DX011 (ip), vehicle: other) was 95 % of control and the T/C (dose: 10.0 mg/kg/injection, schedule: Q01DX011 (ip), vehicle: other) is 91 % of control.
For the compound `Nc1ncnc2c1cnn2Cc1ccc(Cl)cc1`, the T/C is, setting by setting: (dose: 9.5 mg/kg/injection, schedule: Q01DX011 (ip), vehicle: carboxymethylcellulose (CMC)) 98 % of control; (dose: 75.0 mg/kg/injection, schedule: Q01DX011 (ip), vehicle: carboxymethylcellulose (CMC)) 38 % of control.
In the case of `O=C(Nc1ccc2c(O)c(N=Nc3ccccc3)c(S(=O)(=O)O)cc2c1)Nc1ccc2c(O)c(N=Nc3ccc4cc(S(=O)(=O)O)ccc4c3)c(S(=O)(=O)O)cc2c1`, the T/C (dose: 45.0 mg/kg/injection, schedule: Q01DX011 (ip), vehicle: carboxymethylcellulose (CMC)) was 47 % of control.
`NC(=O)c1ccc(NC(=O)CCC(=O)Nc2ccc(C(N)=O)cn2)nc1`: the T/C runs as follows: under setting [3], 83 % of control; under setting [4], 93 % of control; under setting [5], 80 % of control; (dose: 2.0 mg/kg/injection, schedule: Q01DX011 (ip), vehicle: carboxymethylcellulose (CMC)) 33 % of control; under setting [1], 16 % of control; under setting [2], 7 % of control.
